Results reported in patent US11731964B2, “Benzamide antibacterial agents” (Purdue Research Foundation, priority 2018, dated 2023).
In brackets after ≈: the same amount, converted by molar mass. Read-outs that look alike come from different tables or passages of the source.

Columns and labels:
[1] = test system: Clostridium difficile ATCC 9689; assay: Clostridium difficile inhibition analysis; type: cell-based; conditions: Table 6, ATCC 9689
[2] = test system: C. difficile NR-32891 (P13); assay: Clostridium difficile inhibition analysis; type: cell-based; conditions: for Clostridium difficile inhibition: Table 6, P13; for Antibacterial activity: Table 7, C. difficile NR-32891 (P13)
[3] = test system: Clostridium difficile ATCC BAA 1801; assay: Clostridium difficile inhibition analysis; type: cell-based; conditions: for Clostridium difficile inhibition: Table 6, ATCC BAA 1801; for Antibacterial activity: Table 7, C. difficile ATCC BAA 1801
[4] = test system: C. difficile NR-32904 (P30); assay: Clostridium difficile inhibition analysis; type: cell-based; conditions: for Clostridium difficile inhibition: Table 6, P30; for Antibacterial activity: Table 7, C. difficile NR-32904 (P30)
[5] = test system: C. difficile NR-32895 (P19); assay: Clostridium difficile inhibition analysis; type: cell-based; conditions: for Clostridium difficile inhibition: Table 6, P19; for Antibacterial activity: Table 7, C. difficile NR-32895 (P19)
[6] = test system: C. difficile NR-32883 (P2); assay: Clostridium difficile inhibition analysis; type: cell-based; conditions: for Clostridium difficile inhibition: Table 6, P2; for Antibacterial activity: Table 7, C. difficile NR-32883 (P2)
[7] = test system: C. difficile NR-13435 (isolate 9); assay: Clostridium difficile inhibition analysis; type: cell-based; conditions: for Clostridium difficile inhibition: Table 6, I9; for Antibacterial activity: Table 7, C. difficile NR-13435 (isolate 9)
[8] = test system: Clostridium difficile ATCC 43255; assay: Clostridium difficile inhibition analysis; type: cell-based; conditions: for Clostridium difficile inhibition: Table 6, ATCC 43255; for Antibacterial activity: Table 7, C. difficile ATCC 43255
[9] = test system: C. difficile NR-13432 (isolate 6); assay: Clostridium difficile inhibition analysis; type: cell-based; conditions: for Clostridium difficile inhibition: Table 6, I6; for Antibacterial activity: Table 7, C. difficile NR-13432 (isolate 6)
MRSA ATCC 33592 = assay: MIC, broth microdilution; type: cell-based; conditions: Staphylococcus aureus
Method: (§1) Bacteria were cultured in cation-adjusted Mueller Hinton Broth (for strains in Tables 1 and 4) or Brain Heart Infusion broth (for Enterococcus faecium) or Tryptic Soy Broth (all other bacteria) in a 96-well plate at 37° C. for at least 20 hours. The MIC was classified as the lowest concentration where no visual growth of bacteria was observed. The minimum bactericidal concentration (MBC) was tested by spotting 4 μL from wells with no growth onto Tryptic Soy Agar (TSA) plates. Plates were incubated at 37° C. for at least 18 hours before recording the MBC.

E. faecalis = assay: MIC (Table 5, strain not given); type: cell-based; conditions: Enterococcus faecalis; E. faecalis (Table 5)
Method: as §1

VRE = assay: MIC (Table 5, strain not given); type: cell-based; conditions: Enterococcus; VRE (Table 5)
Method: as §1

S. aureus = assay: MIC (Table 5, strain not given); type: cell-based; conditions: Staphylococcus aureus; S. aureus (Table 5)
Method: as §1

E. faecium ATCC = assay: MIC and MBC; type: cell-based
Method: as §1

MRSA NRS385 (USA500) = assay: MIC and MBC; type: cell-based; conditions: Staphylococcus aureus
Method: as §1

MRSA NRS123 (USA400) = assay: MIC and MBC; type: cell-based; conditions: Staphylococcus aureus
Method: as §1

MRSA NRS387 (USA800) = assay: MIC and MBC; type: cell-based; conditions: Staphylococcus aureus
Method: as §1

MRSA NRS386 (USA700) = assay: MIC and MBC; type: cell-based; conditions: Staphylococcus aureus
Method: as §1

MRSA NRS384 (USA300) = assay: MIC and MBC; type: cell-based; conditions: Staphylococcus aureus
Method: as §1

MRSA NRS119 = assay: MIC and MBC; type: cell-based, Staphylococcus aureus; conditions: Staphylococcus aureus
Method: as §1

[10] = test system: L. monocytogenes ATCC 19115; assay: MIC, broth microdilution; type: cell-based; conditions: Listeria monocytogenes, ATCC19115
Method: as §1

E. faecalis ATCC 29212 = assay: MIC, broth microdilution; type: cell-based; conditions: Enterococcus faecalis, ATCC29212
Method: as §1

S. aureus ATCC 25923 = assay: MIC, broth microdilution; type: cell-based; conditions: Staphylococcus aureus, ATCC25923
Method: as §1

[11] = test system: VRE (E. faecalis) ATCC 51575; assay: MIC, broth microdilution; type: cell-based
Method: as §1

VISA NRS1 = assay: MIC and MBC; type: cell-based, S. aureus; conditions: Staphylococcus aureus
Method: as §1

VRSA VRS12 = assay: MIC and MBC; type: cell-based, S. aureus
Method: as §1

[12] = test system: Acinetobacter baumannii ATCC 19606; assay: MIC against Gram-negative pathogens; type: cell-based
Method: as §1

[13] = test system: Klebsiella pneumoniae BAA-1706; assay: MIC against Gram-negative pathogens; type: cell-based
Method: as §1

[14] = test system: Pseudomonas aeruginosa ATCC 15442; assay: MIC against Gram-negative pathogens; type: cell-based
Method: as §1

With `C[C@@H]1C[C@H](C)CN(S(=O)(=O)c2ccc(C(=O)Nc3nnc(-c4ccnn4C)o3)cc2)C1` [HSGN-124, 4-(((3S,5R)-3,5-dimethylpiperidin-1-yl)sulfonyl)-N-(5-(1-methyl-1H-pyrazol-5-yl)-1,3,4-oxadiazol-2-yl)benzamide] the Clostridium difficile inhibition [1] was 1, the Clostridium difficile inhibition [2] was 2 and the Clostridium difficile inhibition [3] was 2. The Clostridium difficile inhibition [4] was 2, the Clostridium difficile inhibition [5] was 1 and the Clostridium difficile inhibition [6] was 0.5. For the same compound, the Clostridium difficile inhibition [7] was 0.5, the Clostridium difficile inhibition [8] was 1 and the Clostridium difficile inhibition [9] was 0.5. It also gave an MIC (MRSA ATCC 33592; MRSA ATCC 33592, read-out: MIC) of 4 µg/mL (≈ 9 µM), an MIC (E. faecalis) of 16 µg/mL (≈ 36 µM) and an MIC (VRE) of 128 µg/mL (≈ 288 µM). For the same compound, the MIC (S. aureus) was 8 µg/mL (≈ 18 µM).
`CN(c1ccccc1)S(=O)(=O)c1ccc(C(=O)Nc2nnc(-c3ccc(C(F)(F)F)cc3)o2)cc1` [HSGN-161, 4-(N-methyl-N-phenylsulfamoyl)-N-(5-(4-(trifluoromethyl)phenyl)-1,3,4-oxadiazol-2-yl)benzamide] showed a Clostridium difficile inhibition [1] of 0.5, a Clostridium difficile inhibition [2] of 0.5 and a Clostridium difficile inhibition [3] of 1. It also gave a Clostridium difficile inhibition [4] of 0.5, a Clostridium difficile inhibition [5] of 0.5 and a Clostridium difficile inhibition [6] of 0.5. The Clostridium difficile inhibition [7] was 0.5, the Clostridium difficile inhibition [8] was 0.5 and the Clostridium difficile inhibition [9] was 0.5. For the same compound, the MIC (MRSA ATCC 33592; MRSA ATCC 33592, read-out: MIC) was 0.25 µg/mL (≈ 0.498 µM) and the MIC (S. aureus) was 0.25 µg/mL (≈ 0.498 µM).
`C[C@@H]1C[C@H](C)CN(S(=O)(=O)c2csc(C(=O)Nc3nnc(-c4ccc(C(F)(F)F)cc4)o3)c2)C1` [HSGN-193, 4-(((3S,5R)-3,5-dimethylpiperidin-1-yl)sulfonyl)-N-(5-(4-(trifluoromethyl)phenyl)-1,3,4-oxadiazol-2-yl)thiophene-2-carboxamide] gave an Antibacterial activity [2] of 0.5, an Antibacterial activity [3] of 0.25 and an Antibacterial activity [4] of 0.5. The Antibacterial activity [5] was 0.25, the Antibacterial activity [6] was 0.125 and the Antibacterial activity [7] was 0.125. For the same compound, the Antibacterial activity [8] was 0.25, the Antibacterial activity [9] was 0.125 and the MIC (MRSA ATCC 33592; MRSA ATCC 33592, read-out: MIC) was 1 µg/mL (≈ 1.94 µM). The MIC (S. aureus) was 0.5 µg/mL (≈ 0.972 µM).
With `CN[C@H](CC(C)C)C(=O)N[C@H]1C(=O)N[C@@H](CC(N)=O)C(=O)N[C@H]2C(=O)N[C@H]3C(=O)N[C@H](C(=O)N[C@H](C(=O)O)c4cc(O)cc(O)c4-c4cc3ccc4O)[C@H](O)c3ccc(c(Cl)c3)Oc3cc2cc(c3O[C@@H]2O[C@H](CO)[C@@H](O)[C@H](O)[C@H]2O[C@H]2C[C@](C)(N)[C@H](O)[C@H](C)O2)Oc2ccc(cc2Cl)[C@H]1O` [Vancomycin, reference compound] the Clostridium difficile inhibition [1] was 0.5, the MIC (E. faecium ATCC; E. faecium ATCC) was greater than 128 µg/mL and the MBC (E. faecium ATCC; Enterococcus faecium) was greater than 128 µg/mL. The MIC (E. faecium ATCC; Enterococcus faecium) was greater than 128 µg/mL, the MBC (MRSA NRS385 (USA500)) was 2 µg/mL (≈ 1.38 µM) and the MIC (MRSA NRS385 (USA500)) was no more than 1 µg/mL. For the same compound, the MBC (MRSA NRS123 (USA400)) was no more than 1 µg/mL, the MIC (MRSA NRS123 (USA400)) was no more than 1 µg/mL and the MBC (MRSA NRS387 (USA800)) was 2 µg/mL (≈ 1.38 µM). The MIC (MRSA NRS387 (USA800)) was 2 µg/mL (≈ 1.38 µM), the MBC (MRSA NRS386 (USA700)) was no more than 1 µg/mL and the MIC (MRSA NRS386 (USA700)) was no more than 1 µg/mL. For the same compound, the MBC (MRSA NRS384 (USA300)) was no more than 1 µg/mL, the MIC (MRSA NRS384 (USA300)) was no more than 1 µg/mL and the Clostridium difficile inhibition [2] was 0.5. The Antibacterial activity [2] was 0.5, the Clostridium difficile inhibition [3] was 1 and the Antibacterial activity [3] was 1. The Clostridium difficile inhibition [4] was 0.5, the Antibacterial activity [4] was 1 and the Clostridium difficile inhibition [5] was 4. For the same compound, the Antibacterial activity [5] was 1, the Clostridium difficile inhibition [6] was 0.5 and the Antibacterial activity [6] was 0.5. For the same compound, the Clostridium difficile inhibition [7] was 2, the Antibacterial activity [7] was 1 and the Clostridium difficile inhibition [8] was 1. The Antibacterial activity [8] was 1, the Clostridium difficile inhibition [9] was 1 and the Antibacterial activity [9] was 0.25. It also gave an MBC (MRSA NRS119) of no more than 1 µg/mL, an MIC (MRSA NRS119) of no more than 1 µg/mL and an MIC (MRSA ATCC 33592) of 2 µg/mL (≈ 1.38 µM). It also gave an MIC [10] of 1 µg/mL (≈ 0.69 µM), an MIC (E. faecalis ATCC 29212) of 2 µg/mL (≈ 1.38 µM) and an MIC (S. aureus ATCC 25923) of 2 µg/mL (≈ 1.38 µM). The MIC [11] was greater than 128 µg/mL, the MBC (VISA NRS1) was 4 µg/mL (≈ 2.76 µM) and the MIC (VISA NRS1) was 4 µg/mL (≈ 2.76 µM). It also gave an MBC (VRSA VRS12; Staphylococcus aureus, VRSA) greater than 128 µg/mL, an MIC (VRSA VRS12; Staphylococcus aureus, VRSA) greater than 128 µg/mL and an MIC (VRSA VRS12; VRSA VRS12) greater than 128 µg/mL.
Colistin [reference compound] was tested, and the MIC [12] was no more than 1 µg/mL, the MIC [13] was no more than 1 µg/mL and the MIC [14] was no more than 1 µg/mL.
